The target of this assay is T1, KCNQ2 (Homo sapiens, UniProt O43526).
T1 construct: WT KCNQ2 homotetrameric channel expressed in CHO cells
Put plainly: whole-cell voltage clamp in transfected CHO cells, concentration-response of outward current potentiation. It counts as cell-based.

T1 sequence (O43526 whole entry): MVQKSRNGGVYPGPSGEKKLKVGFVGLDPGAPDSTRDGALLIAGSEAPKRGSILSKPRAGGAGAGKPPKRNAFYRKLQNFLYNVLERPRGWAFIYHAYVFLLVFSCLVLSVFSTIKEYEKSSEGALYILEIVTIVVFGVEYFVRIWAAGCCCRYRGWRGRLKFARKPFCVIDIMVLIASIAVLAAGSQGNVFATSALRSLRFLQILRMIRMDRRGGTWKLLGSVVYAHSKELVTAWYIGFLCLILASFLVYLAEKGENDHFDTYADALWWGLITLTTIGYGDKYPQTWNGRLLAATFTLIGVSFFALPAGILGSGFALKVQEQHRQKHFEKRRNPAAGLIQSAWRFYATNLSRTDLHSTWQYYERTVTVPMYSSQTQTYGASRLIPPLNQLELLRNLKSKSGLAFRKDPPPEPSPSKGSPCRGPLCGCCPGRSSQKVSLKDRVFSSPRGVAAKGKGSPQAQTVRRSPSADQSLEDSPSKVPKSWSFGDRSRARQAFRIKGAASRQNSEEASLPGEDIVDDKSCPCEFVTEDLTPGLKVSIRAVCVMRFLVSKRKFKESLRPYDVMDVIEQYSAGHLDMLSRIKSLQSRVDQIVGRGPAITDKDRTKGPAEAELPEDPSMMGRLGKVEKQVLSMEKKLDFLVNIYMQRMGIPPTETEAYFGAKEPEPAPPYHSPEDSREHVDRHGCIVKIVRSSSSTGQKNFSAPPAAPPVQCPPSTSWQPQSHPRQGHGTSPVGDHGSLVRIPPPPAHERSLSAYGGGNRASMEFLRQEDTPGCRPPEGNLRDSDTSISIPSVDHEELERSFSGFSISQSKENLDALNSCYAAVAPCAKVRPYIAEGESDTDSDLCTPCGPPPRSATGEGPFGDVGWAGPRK

For `O=C(Nc1ccc(Cl)nc1)c1ccc(F)cc1` [ztz240, N-(6-chloro-pyridin-3-yl)-4-fluorobenzamide], the EC50 is approximately 5.8 µM.
